Experimental data taken from PubChem BioAssay AID1963840 (Molecular Pharmacology Branch, DTP, NCI, 2024).

System: 695427-040-R-J1-PDC complex spheroid viability
Assay: Anticancer human tumor 695427-040-R-J1-PDC patient-derived colon adenocarcinoma cell line growth inhibition [POLQ]
Settings: for IC50: curve of first compound; for viability, T/C: stronger effect = lower value
Summary of the method: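 Complex spheroid viability model combining PDC tumour cells with endothelial (HUVEC) and MSC stromal cells. Novobiocin, ART-558 or RP6685 were tested singly and in combination with standard and investigational anticancer drugs. Each was titrated in half-log steps from near clinical Cmax, or from 10 microM where Cmax was unknown.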

[1] = second compound 0.0316 µM, first compound 0.0316 µM
[2] = second compound 0.0316 µM, first compound 0.1 µM
[3] = second compound 0.0316 µM, first compound 0.316 µM
[4] = second compound 0.0316 µM, first compound 1 µM
[5] = second compound 0.0316 µM, first compound 3.16 µM
[6] = second compound 0.0316 µM, first compound 10 µM
[7] = second compound 0.1 µM, first compound 0.0316 µM
[8] = second compound 0.1 µM, first compound 0.1 µM
[9] = second compound 0.1 µM, first compound 0.316 µM
[10] = second compound 0.1 µM, first compound 1 µM
[11] = second compound 0.1 µM, first compound 3.16 µM
[12] = second compound 0.1 µM, first compound 10 µM
[13] = second compound 0.316 µM, first compound 0.0316 µM
[14] = second compound 0.316 µM, first compound 0.1 µM
[15] = second compound 0.316 µM, first compound 0.316 µM
[16] = second compound 0.316 µM, first compound 1 µM
[17] = second compound 0.316 µM, first compound 3.16 µM
[18] = second compound 0.316 µM, first compound 10 µM
[19] = second compound 1 µM, first compound 0.0316 µM
[20] = second compound 1 µM, first compound 0.1 µM
[21] = second compound 1 µM, first compound 0.316 µM
[22] = second compound 1 µM, first compound 1 µM
[23] = second compound 1 µM, first compound 3.16 µM
[24] = second compound 1 µM, first compound 10 µM
[25] = second compound 3.16 µM, first compound 0.0316 µM
[26] = second compound 3.16 µM, first compound 0.1 µM
[27] = second compound 3.16 µM, first compound 0.316 µM
[28] = second compound 3.16 µM, first compound 1 µM
[29] = second compound 3.16 µM, first compound 3.16 µM
[30] = second compound 3.16 µM, first compound 10 µM
[31] = second compound 10 µM, first compound 0.0316 µM
[32] = second compound 10 µM, first compound 0.1 µM
[33] = second compound 10 µM, first compound 0.316 µM
[34] = second compound 10 µM, first compound 1 µM
[35] = second compound 10 µM, first compound 3.16 µM
[36] = second compound 10 µM, first compound 10 µM
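Note: spheroids exposed to compounds for seven days.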
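Throughout, for viability, T/C: 100% = DMSO vehicle control viability.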

CC1COCCN1c1cc(-c2ccnn2C)c2ccnc(-c3ccn[nH]3)c2n1 (centres undefined) + COC1C(OC(N)=O)C(O)C(Oc2ccc3c(O)c(NC(=O)c4ccc(O)c(CC=C(C)C)c4)c(=O)oc3c2C)OC1(C)C
IC50 (second compound 0.0316 µM): 1210 nM | IC50 (second compound 0.1 µM): 1130 nM | IC50 (second compound 0.316 µM): 1560 nM | IC50 (second compound 1 µM): 748 nM | IC50 (second compound 3.16 µM): 1210 nM | IC50 (second compound 10 µM): 1470 nM | viability, T/C [1]: 97.2% | viability, T/C [2]: 83.3% | viability, T/C [3]: 63.5% | viability, T/C [4]: 50.3% | viability, T/C [5]: 47% | viability, T/C [6]: 44.8% | viability, T/C [7]: 97.5% | viability, T/C [8]: 81.1% | viability, T/C [9]: 64.2% | viability, T/C [10]: 49.9% | viability, T/C [11]: 44.3% | viability, T/C [12]: 44.7% | viability, T/C [13]: 104% | viability, T/C [14]: 79.7% | viability, T/C [15]: 61.4% | viability, T/C [16]: 51.2% | viability, T/C [17]: 48.5% | viability, T/C [18]: 44.6% | viability, T/C [19]: 93.5% | viability, T/C [20]: 85.9% | viability, T/C [21]: 58.2% | viability, T/C [22]: 49.4% | viability, T/C [23]: 46.6% | viability, T/C [24]: 41.8% | viability, T/C [25]: 95.8% | viability, T/C [26]: 86.8% | viability, T/C [27]: 63.3% | viability, T/C [28]: 52.1% | viability, T/C [29]: 47.6% | viability, T/C [30]: 44.7% | viability, T/C [31]: 90.8% | viability, T/C [32]: 80.6% | viability, T/C [33]: 65.9% | viability, T/C [34]: 47.5% | viability, T/C [35]: 51% | viability, T/C [36]: 46.2%

CCc1cc2c(N3CCc4c(cc(Cn5ccnc5)cc4-c4cn(C)nc4C(F)(F)F)C3=O)ccnc2c(OC)n1 + COC1C(OC(N)=O)C(O)C(Oc2ccc3c(O)c(NC(=O)c4ccc(O)c(CC=C(C)C)c4)c(=O)oc3c2C)OC1(C)C
IC50 (second compound 0.0316 µM): > 10000 nM | IC50 (second compound 0.1 µM): > 10000 nM | IC50 (second compound 0.316 µM): > 10000 nM | IC50 (second compound 1 µM): > 10000 nM | IC50 (second compound 3.16 µM): > 10000 nM | IC50 (second compound 10 µM): > 10000 nM | viability, T/C [1]: 110% | viability, T/C [2]: 111% | viability, T/C [3]: 106% | viability, T/C [4]: 116% | viability, T/C [5]: 114% | viability, T/C [6]: 97.2% | viability, T/C [7]: 111% | viability, T/C [8]: 103% | viability, T/C [9]: 115% | viability, T/C [10]: 109% | viability, T/C [11]: 116% | viability, T/C [12]: 105% | viability, T/C [13]: 111% | viability, T/C [14]: 116% | viability, T/C [15]: 108% | viability, T/C [16]: 101% | viability, T/C [17]: 109% | viability, T/C [18]: 95.6% | viability, T/C [19]: 116% | viability, T/C [20]: 112% | viability, T/C [21]: 109% | viability, T/C [22]: 98.3% | viability, T/C [23]: 111% | viability, T/C [24]: 101% | viability, T/C [25]: 103% | viability, T/C [26]: 104% | viability, T/C [27]: 107% | viability, T/C [28]: 105% | viability, T/C [29]: 117% | viability, T/C [30]: 101% | viability, T/C [31]: 111% | viability, T/C [32]: 92.7% | viability, T/C [33]: 108% | viability, T/C [34]: 106% | viability, T/C [35]: 113% | viability, T/C [36]: 96.3%
